The supplement of paper PMC10307832

Columns and labels:
Assay in all cases: relative viability (nuclei count vs DMSO), 5 days (fraction); higher = more cells survive
COR-L 105 = test system: COR-L 105
Summary of the method: (§1)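 Dosing by pin tool came one day after lung cancer cell lines were seeded in 1536-well plates, using either one drug or a fixed anchor-drug dose plus five library-drug doses (not always all listed) in √10 steps. After 5 days, nuclei were counted on 4× images. Relative viability is treated-well nuclei count divided by vehicle-well nuclei count, and values are medians of duplicate plates.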

LCLC-103H = test system: LCLC-103H
Summary of the method: as §1

LK-2 = test system: LK-2
Summary of the method: as §1

NCI-H1355 = test system: NCI-H1355
Summary of the method: as §1

NCI-H1648 = test system: NCI-H1648
Summary of the method: as §1

NCI-H1666 = test system: NCI-H1666
Summary of the method: as §1

NCI-H520 = test system: NCI-H520
Summary of the method: as §1

NCI-H522 = test system: NCI-H522
Summary of the method: as §1

Nc1ccn([C@@H]2O[C@H](CO)[C@@H](O)[C@@H]2O)c(=O)n1 [Cytarabine] + CC(=O)c1c(C)c2cnc(Nc3ccc(N4CCNCC4)cn3)nc2n(C2CCCC2)c1=O [Palbociclib] (partner 0.5 µM)
relative viability (COR-L 105; first compound 0.005 µM): 0.37
relative viability (COR-L 105; first compound 0.01581 µM): 0.37
relative viability (COR-L 105; first compound 0.05 µM): 0.27
relative viability (COR-L 105; first compound 0.1581 µM): 0.351
relative viability (COR-L 105; first compound 0.5 µM): 0.324
relative viability (LCLC-103H; first compound 0.005 µM): 0.488
relative viability (LCLC-103H; first compound 0.01581 µM): 0.429
relative viability (LCLC-103H; first compound 0.05 µM): 0.498
relative viability (LCLC-103H; first compound 0.1581 µM): 0.439
relative viability (LCLC-103H; first compound 0.5 µM): 0.492
relative viability (LK-2; first compound 0.005 µM): 0.634
relative viability (LK-2; first compound 0.01581 µM): 0.267
relative viability (LK-2; first compound 0.05 µM): 0.233
relative viability (LK-2; first compound 0.1581 µM): 0.14
relative viability (LK-2; first compound 0.5 µM): 0.107
relative viability (NCI-H1355; first compound 0.005 µM): 0.595
relative viability (NCI-H1355; first compound 0.01581 µM): 0.325
relative viability (NCI-H1355; first compound 0.05 µM): 0.396
relative viability (NCI-H1355; first compound 0.1581 µM): 0.28
relative viability (NCI-H1355; first compound 0.5 µM): 0.232
relative viability (NCI-H1648; first compound 0.005 µM): 0.29
relative viability (NCI-H1648; first compound 0.01581 µM): 0.283
relative viability (NCI-H1648; first compound 0.05 µM): 0.263
relative viability (NCI-H1648; first compound 0.1581 µM): 0.308
relative viability (NCI-H1648; first compound 0.5 µM): 0.273
relative viability (NCI-H1666; first compound 0.005 µM): 0.611
relative viability (NCI-H1666; first compound 0.01581 µM): 0.573
relative viability (NCI-H1666; first compound 0.05 µM): 0.627
relative viability (NCI-H1666; first compound 0.1581 µM): 0.511
relative viability (NCI-H1666; first compound 0.5 µM): 0.575
relative viability (NCI-H520; first compound 0.005 µM): 0.234
relative viability (NCI-H520; first compound 0.01581 µM): 0.223
relative viability (NCI-H520; first compound 0.05 µM): 0.199
relative viability (NCI-H520; first compound 0.1581 µM): 0.177
relative viability (NCI-H520; first compound 0.5 µM): 0.201
relative viability (NCI-H522; first compound 0.005 µM): 1.09
relative viability (NCI-H522; first compound 0.01581 µM): 0.872
relative viability (NCI-H522; first compound 0.05 µM): 0.824
relative viability (NCI-H522; first compound 0.1581 µM): 0.767
relative viability (NCI-H522; first compound 0.5 µM): 0.595

Cc1sc2c(c1C)C(c1ccc(Cl)cc1)=N[C@@H](CC(=O)OC(C)(C)C)c1nnc(C)n1-2 [JQ1] + CC(=O)Nc1cccc(-n2c(=O)n(C3CC3)c(=O)c3c(Nc4ccc(I)cc4F)n(C)c(=O)c(C)c32)c1 [Trametinib] (partner 0.02 µM)
relative viability (COR-L 105; first compound 0.04 µM): 0.46
relative viability (COR-L 105; first compound 0.1265 µM): 0.362
relative viability (COR-L 105; first compound 0.4 µM): 0.377
relative viability (COR-L 105; first compound 1.265 µM): 0.355
relative viability (COR-L 105; first compound 4 µM): 0.357
relative viability (LCLC-103H; first compound 0.04 µM): 0.642
relative viability (LCLC-103H; first compound 0.1265 µM): 0.613
relative viability (LCLC-103H; first compound 0.4 µM): 0.534
relative viability (LCLC-103H; first compound 1.265 µM): 0.477
relative viability (LCLC-103H; first compound 4 µM): 0.426
relative viability (LK-2; first compound 0.04 µM): 0.71
relative viability (LK-2; first compound 0.1265 µM): 0.579
relative viability (LK-2; first compound 0.4 µM): 0.217
relative viability (LK-2; first compound 1.265 µM): 0.163
relative viability (LK-2; first compound 4 µM): 0.218
relative viability (NCI-H1355; first compound 0.04 µM): 0.432
relative viability (NCI-H1355; first compound 0.1265 µM): 0.429
relative viability (NCI-H1355; first compound 0.4 µM): 0.34
relative viability (NCI-H1355; first compound 1.265 µM): 0.277
relative viability (NCI-H1355; first compound 4 µM): 0.255
relative viability (NCI-H1648; first compound 0.04 µM): 0.432
relative viability (NCI-H1648; first compound 0.1265 µM): 0.473
relative viability (NCI-H1648; first compound 0.4 µM): 0.337
relative viability (NCI-H1648; first compound 1.265 µM): 0.303
relative viability (NCI-H1648; first compound 4 µM): 0.245
relative viability (NCI-H1666; first compound 0.04 µM): 0.92
relative viability (NCI-H1666; first compound 0.1265 µM): 0.874
relative viability (NCI-H1666; first compound 0.4 µM): 0.847
relative viability (NCI-H1666; first compound 1.265 µM): 0.641
relative viability (NCI-H1666; first compound 4 µM): 0.757
relative viability (NCI-H520; first compound 0.04 µM): 0.565
relative viability (NCI-H520; first compound 0.1265 µM): 0.66
relative viability (NCI-H520; first compound 0.4 µM): 0.386
relative viability (NCI-H520; first compound 1.265 µM): 0.391
relative viability (NCI-H520; first compound 4 µM): 0.239
relative viability (NCI-H522; first compound 0.04 µM): 0.767
relative viability (NCI-H522; first compound 0.1265 µM): 0.631
relative viability (NCI-H522; first compound 0.4 µM): 0.485
relative viability (NCI-H522; first compound 1.265 µM): 0.482
relative viability (NCI-H522; first compound 4 µM): 0.447

COc1cc2nccc(Oc3ccc(NC(=O)Nc4cc(C)on4)c(Cl)c3)c2cc1OC [Tivozanib] + CC(=O)Nc1cccc(-n2c(=O)n(C3CC3)c(=O)c3c(Nc4ccc(I)cc4F)n(C)c(=O)c(C)c32)c1 [Trametinib] (partner 0.02 µM)
relative viability (COR-L 105; first compound 0.005 µM): 0.417
relative viability (COR-L 105; first compound 0.01581 µM): 0.451
relative viability (COR-L 105; first compound 0.05 µM): 0.454
relative viability (COR-L 105; first compound 0.1581 µM): 0.482
relative viability (COR-L 105; first compound 0.5 µM): 0.494
relative viability (LCLC-103H; first compound 0.005 µM): 0.673
relative viability (LCLC-103H; first compound 0.01581 µM): 0.78
relative viability (LCLC-103H; first compound 0.05 µM): 0.694
relative viability (LCLC-103H; first compound 0.1581 µM): 0.729
relative viability (LCLC-103H; first compound 0.5 µM): 0.695
relative viability (LK-2; first compound 0.005 µM): 0.933
relative viability (LK-2; first compound 0.01581 µM): 0.534
relative viability (LK-2; first compound 0.05 µM): 0.622
relative viability (LK-2; first compound 0.1581 µM): 0.85
relative viability (LK-2; first compound 0.5 µM): 0.773
relative viability (NCI-H1355; first compound 0.005 µM): 0.413
relative viability (NCI-H1355; first compound 0.01581 µM): 0.432
relative viability (NCI-H1355; first compound 0.05 µM): 0.455
relative viability (NCI-H1355; first compound 0.1581 µM): 0.33
relative viability (NCI-H1355; first compound 0.5 µM): 0.408
relative viability (NCI-H1648; first compound 0.005 µM): 0.478
relative viability (NCI-H1648; first compound 0.01581 µM): 0.604
relative viability (NCI-H1648; first compound 0.05 µM): 0.473
relative viability (NCI-H1648; first compound 0.1581 µM): 0.442
relative viability (NCI-H1648; first compound 0.5 µM): 0.429
relative viability (NCI-H1666; first compound 0.005 µM): 0.839
relative viability (NCI-H1666; first compound 0.01581 µM): 0.78
relative viability (NCI-H1666; first compound 0.05 µM): 0.977
relative viability (NCI-H1666; first compound 0.1581 µM): 0.922
relative viability (NCI-H1666; first compound 0.5 µM): 0.862
relative viability (NCI-H520; first compound 0.005 µM): 0.658
relative viability (NCI-H520; first compound 0.01581 µM): 0.771
relative viability (NCI-H520; first compound 0.05 µM): 0.612
relative viability (NCI-H520; first compound 0.1581 µM): 0.475
relative viability (NCI-H520; first compound 0.5 µM): 0.646
relative viability (NCI-H522; first compound 0.005 µM): 0.877
relative viability (NCI-H522; first compound 0.01581 µM): 0.732
relative viability (NCI-H522; first compound 0.05 µM): 0.705
relative viability (NCI-H522; first compound 0.1581 µM): 0.684
relative viability (NCI-H522; first compound 0.5 µM): 0.804
